ChEMBL document CHEMBL5321293, “Discovery of ERD-3111 as a Potent and Orally Efficacious Estrogen Receptor PROTAC Degrader with Strong Antitumor Activity” (J Med Chem, 2023)

Experiments:
[1] = target: T1, Protein cereblon/Estrogen receptor (Homo sapiens, UniProt P03372+Q96SW2); test: Protac activity at human ERalpha in human MCF7 cells assessed as protein degradation incubated for 12 hrs by ICW blot assay; type: cell-based
Target sequence in this assay (P03372 whole entry): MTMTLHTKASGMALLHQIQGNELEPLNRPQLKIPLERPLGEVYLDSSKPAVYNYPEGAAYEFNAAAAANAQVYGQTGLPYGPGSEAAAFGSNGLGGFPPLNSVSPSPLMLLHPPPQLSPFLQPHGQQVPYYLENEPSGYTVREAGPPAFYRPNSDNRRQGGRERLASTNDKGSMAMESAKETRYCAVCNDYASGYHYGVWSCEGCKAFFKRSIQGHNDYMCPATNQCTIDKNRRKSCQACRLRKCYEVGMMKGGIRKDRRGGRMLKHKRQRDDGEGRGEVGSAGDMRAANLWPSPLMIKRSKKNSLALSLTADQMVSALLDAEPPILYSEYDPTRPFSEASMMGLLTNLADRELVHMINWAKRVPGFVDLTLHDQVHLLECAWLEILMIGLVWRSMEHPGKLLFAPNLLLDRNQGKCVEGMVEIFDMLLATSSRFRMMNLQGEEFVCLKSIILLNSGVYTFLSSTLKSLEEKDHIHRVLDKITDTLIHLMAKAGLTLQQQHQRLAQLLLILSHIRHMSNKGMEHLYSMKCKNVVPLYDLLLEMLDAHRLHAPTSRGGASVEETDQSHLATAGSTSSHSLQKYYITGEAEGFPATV
Target sequence in this assay (Q96SW2 whole entry): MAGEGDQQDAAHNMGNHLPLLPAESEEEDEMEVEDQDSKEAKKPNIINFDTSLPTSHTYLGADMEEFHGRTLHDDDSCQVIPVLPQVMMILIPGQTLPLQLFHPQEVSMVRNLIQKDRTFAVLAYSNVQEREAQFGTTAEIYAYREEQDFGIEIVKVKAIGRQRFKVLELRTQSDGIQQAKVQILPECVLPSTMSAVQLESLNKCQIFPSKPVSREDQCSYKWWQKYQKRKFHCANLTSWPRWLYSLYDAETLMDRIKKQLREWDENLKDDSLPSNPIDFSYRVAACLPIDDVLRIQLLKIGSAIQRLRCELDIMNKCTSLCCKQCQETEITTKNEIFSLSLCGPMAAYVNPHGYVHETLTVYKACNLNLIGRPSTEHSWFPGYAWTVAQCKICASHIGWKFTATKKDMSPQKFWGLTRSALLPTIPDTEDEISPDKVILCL

[2] = target: T1, Protein cereblon/Estrogen receptor; test: Protac activity at human ERalpha in human MCF7 cells assessed as induction of ERalpha degradation by measuring maximum efficacy at 1 uM incubated for 12 hrs by ICW blot assay relative to control; type: cell-based
Target sequence in this assay (P03372 whole entry, looked up): as the sequence (P03372 whole entry) above
Target sequence in this assay (Q96SW2 whole entry, looked up): as the sequence (Q96SW2 whole entry) above

[3] = Plasma concentration in Sprague-Dawley rat at 3 mg/kg,po and mesured after 1 hrs by LC-MS/MS analysis; type: ADME, organism-based
[4] = Plasma concentration in Sprague-Dawley rat at 3 mg/kg,po and mesured after 3 hrs by LC-MS/MS analysis; type: ADME, organism-based
[5] = Plasma concentration in Sprague-Dawley rat at 3 mg/kg,po and mesured after 6 hrs by LC-MS/MS analysis; type: ADME, organism-based
[6] = Volume of distribution at steady state in Sprague-Dawley rat at 1 mg/kg, iv and measured upto 24 hrs by LC-MS/MS analysis; conditions: in vivo
[7] = Clearance in Sprague-Dawley rat at 1 mg/kg, iv and measured upto 24 hrs by LC-MS/MS analysis; conditions: in vivo
[8] = Half life in Sprague-Dawley rat at 3 mg/kg, po and measured upto 24 hrs by LC-MS/MS analysis; conditions: in vivo
[9] = AUC in Sprague-Dawley rat at 3 mg/kg, po and measured upto 24 hrs by LC-MS/MS analysis; type: ADME, organism-based; design: dose 3 mg/kg, time < 24 hrs, route po; conditions: Sprague-Dawley, in vivo
[10] = Volume of distribution at steady state in ICR mouse at 1 mg/kg, iv and measured upto 24 hrs by LC-MS/MS analysis; type: ADME, organism-based; conditions: in vivo, read-out: Vdss
[11] = Clearance in ICR mouse at 1 mg/kg, iv and measured upto 24 hrs by LC-MS/MS analysis; type: ADME, organism-based; conditions: in vivo
[12] = Half life in ICR mouse at 3 mg/kg, po and measured upto 24 hrs by LC-MS/MS analysis; type: ADME, organism-based; conditions: in vivo
[13] = Cmax in ICR mouse at 3 mg/kg, po and measured upto 24 hrs by LC-MS/MS analysis; type: ADME, organism-based; design: dose 3 mg/kg, time < 24 hrs, route po; conditions: in vivo
[14] = AUC in ICR mouse at 3 mg/kg, po and measured upto 24 hrs by LC-MS/MS analysis; type: ADME, organism-based; design: dose 3 mg/kg, time < 24 hrs, route po; conditions: in vivo
[15] = Oral bioavailability in ICR mouse at 3 mg/kg and measured upto 24 hrs by LC-MS/MS analysis; type: ADME, organism-based; conditions: in vivo
in vivo [16] = conditions: Sprague-Dawley, rat, po, 3 mg/kg
in vivo [17] = conditions: Sprague-Dawley, rat, po, 3 mg/kg; remark: listed apart in the source

Compound | DC50 [1] [nM] | Emax [2] [%] | other results
O=C1CCC(N2C(=O)c3cc4c(cc3C2=O)CN(CC(=O)N2CC3(CCN(c5ccc([C@@H]6c7ccc(O)cc7CC[C@@H]6c6ccccc6)cc5)CC3)C2)C4)C(=O)N1 (stereo not given in full) | 2.8 | 71 | –
O=C1CCC(N2C(=O)c3cc4c(cc3C2=O)CN(CC(=O)N2CCC3(CCN(c5ccc([C@@H]6c7ccc(O)cc7CC[C@@H]6c6ccccc6)cc5)CC3)C2)C4)C(=O)N1 (stereo not given in full) | 4.6 | 75 | –
O=C1CCC(N2C(=O)c3cc4c(cc3C2=O)CN(CC(=O)N2CCCC3(CCN(c5ccc([C@@H]6c7ccc(O)cc7CC[C@@H]6c6ccccc6)cc5)CC3)C2)C4)C(=O)N1 (stereo not given in full) | 393 | 58 | –
C[C@@H]1Cc2c([nH]c3ccccc23)[C@@H](c2c(F)cc(N3CCC4(CCN(C(=O)CN5Cc6cc7c(cc6C5)C(=O)N(C5CCC(=O)NC5=O)C7=O)CC4)CC3)cc2F)N1CC(F)(F)CO (stereo not given in full) | 0.1 | 97 | concentration at 1 h [3]: 9.3 ng/mL; concentration at 3 h [4]: 6.6 ng/mL; concentration at 6 h [5]: 3 ng/mL
O=C1CCC(N2C(=O)c3cc4c(cc3C2=O)CN(C2CCN(CC3CCN(c5ccc([C@@H]6c7ccc(O)cc7CC[C@@H]6c6ccccc6)cc5)CC3)CC2)C4)C(=O)N1 (stereo not given in full) | 2.3 | 84 | Vd at 24 h [6]: 8.8 L/kg; clearance at 24 h [7]: 25.7 mL/min/kg; half-life at 24 h [8]: 4 h; AUC at 24 h [9]: 552 ng·h/mL; Vd [10]: 16.2 L/kg; clearance [11]: 14.2 mL/min/kg; half-life [12]: 9.8 h; Cmax [13]: 93.3 ng/mL; AUC at 24 h [14]: 1480 ng·h/mL; bioavailability [15]: 58%; Cmax at 24 h (in vivo [16]): 54.6 ng/mL; bioavailability at 24 h (in vivo [17]): 30%
O=C1CCC(N2C(=O)c3cc4c(cc3C2=O)CN(CC(=O)N2CCC3(C2)CN(c2ccc([C@@H]5c6ccc(O)cc6CC[C@@H]5c5ccccc5)cc2)C3)C4)C(=O)N1 (stereo not given in full) | > 1000 | 23 | –
O=C1CCC(N2C(=O)c3cc4c(cc3C2=O)CN(CC(=O)N2CCC3(CC2)CCN(c2ccc([C@H]5c6ccc(O)cc6CC[C@H]5c5ccccc5)cc2)C3)C4)C(=O)N1 (single isomer, unassigned) | 18 | 58 | –
O=C1CCC(N2C(=O)c3cc4c(cc3C2=O)CN(C(=O)CN2CCC3(CC2)CCN(c2ccc([C@@H]5c6ccc(O)cc6CC[C@@H]5c5ccccc5)cc2)CC3)C4)C(=O)N1 (stereo not given in full) | > 1000 | 16 | –
C[C@@H]1Cc2c(ccc3[nH]ncc23)[C@@H](c2ccc(N3CCC4(CCN(C(=O)CN5Cc6cc7c(cc6C5)C(=O)N(C5CCC(=O)NC5=O)C7=O)CC4)CC3)cn2)N1CC(F)(F)F (stereo not given in full) | 3.8 | 107 | Vd at 24 h [6]: 3.7 L/kg; clearance at 24 h [7]: 27 mL/min/kg; half-life at 24 h [8]: 2.3 h; AUC at 24 h [9]: 243 ng·h/mL; Cmax at 24 h (in vivo [16]): 51.8 ng/mL; bioavailability at 24 h (in vivo [17]): 14%
O=C1CCC(N2C(=O)c3cc4c(cc3C2=O)CN(C(=O)C2CCN(CC3CCN(c5ccc([C@@H]6c7ccc(O)cc7CC[C@@H]6c6ccccc6)cc5)CC3)CC2)C4)C(=O)N1 (stereo not given in full) | 9.7 | 63 | –
O=C1CCC(N2C(=O)c3cc4c(cc3C2=O)CN(C2CCN(CC3CN(c5ccc([C@@H]6c7ccc(O)cc7CC[C@@H]6c6ccccc6)cc5)C3)CC2)C4)C(=O)N1 (stereo not given in full) | 295 | 57 | –
O=C1CCC(N2C(=O)c3cc4c(cc3C2=O)CN(CC2CCN(C(=O)C3CCN(c5ccc([C@@H]6c7ccc(O)cc7CC[C@@H]6c6ccccc6)cc5)CC3)CC2)C4)C(=O)N1 (stereo not given in full) | 13 | 76 | –
C[C@@H]1Cc2c(ccc3[nH]ncc23)[C@@H](c2c(F)cc(N3CCC4(CCN(C(=O)CN5Cc6cc7c(cc6C5)C(=O)N(C5CCC(=O)NC5=O)C7=O)CC4)CC3)cc2F)N1CC(F)(F)F (stereo not given in full) | 2 | 88 | –
O=C1CCC(N2C(=O)c3cc4c(cc3C2=O)CN(C(=O)C2CCN(CC3CN(c5ccc([C@@H]6c7ccc(O)cc7CC[C@@H]6c6ccccc6)cc5)C3)CC2)C4)C(=O)N1 (stereo not given in full) | > 1000 | 40 | –
COc1cc(N2CCC3(CCN(C(=O)CN4Cc5cc6c(cc5C4)C(=O)N(C4CCC(=O)NC4=O)C6=O)CC3)CC2)ccc1[C@@H]1c2ccc3[nH]ncc3c2C[C@@H](C)N1CC(F)F (stereo not given in full) | 1.4 | 82 | –
O=C1CCC(N2C(=O)c3cc4c(cc3C2=O)CN(CC(=O)N2CC3(C2)CN(c2ccc([C@@H]5c6ccc(O)cc6CC[C@@H]5c5ccccc5)cc2)C3)C4)C(=O)N1 (stereo not given in full) | 11 | 65 | –
O=C1CCC(N2C(=O)c3cc4c(cc3C2=O)CN(C2CCN(C(=O)C3CCN(c5ccc([C@@H]6c7ccc(O)cc7CC[C@@H]6c6ccccc6)cc5)CC3)CC2)C4)C(=O)N1 (stereo not given in full) | 1.6 | 95 | Vd at 24 h [6]: 2 L/kg; clearance at 24 h [7]: 23.1 mL/min/kg; half-life at 24 h [8]: 2.7 h; AUC at 24 h [9]: 206 ng·h/mL; Cmax at 24 h (in vivo [16]): 40.6 ng/mL; bioavailability at 24 h (in vivo [17]): 10%
O=C1CCC(N2C(=O)c3cc4c(cc3C2=O)CN(CC(=O)N2CCC3(CC2)CCN(c2ccc([C@@H]5c6ccc(O)cc6CC[C@@H]5c5ccccc5)cc2)CC3)C4)C(=O)N1 (stereo not given in full) | 5.5 | 90 | Vd at 24 h [6]: 1.6 L/kg; clearance at 24 h [7]: 20 mL/min/kg; half-life at 24 h [8]: 2.5 h; AUC at 24 h [9]: 328 ng·h/mL; Vd [10]: 2.2 L/kg; clearance [11]: 31 mL/min/kg; half-life [12]: 3.1 h; Cmax [13]: 146 ng/mL; AUC at 24 h [14]: 550 ng·h/mL; bioavailability [15]: 35%; Cmax at 24 h (in vivo [16]): 69.5 ng/mL; bioavailability at 24 h (in vivo [17]): 13%
O=C1CCC(N2C(=O)c3cc4c(cc3C2=O)CN(CC(=O)N2CC3(CCN(c5ccc([C@@H]6c7ccc(O)cc7CC[C@@H]6c6ccccc6)cc5)C3)C2)C4)C(=O)N1 (stereo not given in full) | 4 | 63 | –
C[C@@H]1Cc2c(ccc3[nH]ncc23)[C@@H](c2ccc(N3CCC4(CCN(C(=O)CN5Cc6cc7c(cc6C5)C(=O)N(C5CCC(=O)NC5=O)C7=O)CC4)CC3)cn2)N1CC(F)F (stereo not given in full) | 14 | 112 | –
O=C1CCC(N2C(=O)c3cc4c(cc3C2=O)CN(CC(=O)N2CCC3(CC2)CN(c2ccc([C@@H]5c6ccc(O)cc6CC[C@@H]5c5ccccc5)cc2)C3)C4)C(=O)N1 (stereo not given in full) | 1.8 | 68 | –

Continued, in another order:

DC50 [1] [nM] | Emax [2] [%] | Compound | other results
> 1000 | 32 | O=C1CCC(N2C(=O)c3cc4c(cc3C2=O)CN(C2CCN(c3ccc([C@@H]5c6ccc(O)cc6CC[C@@H]5c5ccccc5)cc3)CC2)C4)C(=O)N1 (stereo not given in full) | –
32 | 87 | O=C1CCC(N2C(=O)c3cc4c(cc3C2=O)CN(CC2CCN(C(=O)C3CN(c5ccc([C@@H]6c7ccc(O)cc7CC[C@@H]6c6ccccc6)cc5)C3)CC2)C4)C(=O)N1 (stereo not given in full) | –
415 | 65 | O=C1CCC(N2C(=O)c3cc4c(cc3C2=O)CN(CC2CCN(c3ccc([C@@H]5c6ccc(O)cc6CC[C@@H]5c5ccccc5)cc3)CC2)C4)C(=O)N1 (stereo not given in full) | –
31 | 106 | O=C1CCC(N2C(=O)c3cc4c(cc3C2=O)CN(CCCCCC2CCN(c3ccc([C@@H]5c6ccc(O)cc6CC[C@@H]5c5ccccc5)cc3)CC2)C4)C(=O)N1 (stereo not given in full) | –
19 | 64 | O=C1CCC(N2C(=O)c3cc4c(cc3C2=O)CN(CC2CCN(CC3CN(c5ccc([C@@H]6c7ccc(O)cc7CC[C@@H]6c6ccccc6)cc5)C3)CC2)C4)C(=O)N1 (stereo not given in full) | –
989 | 50 | O=C1CCC(N2C(=O)c3cc4c(cc3C2=O)CN(C2CN(CC3CCN(c5ccc([C@@H]6c7ccc(O)cc7CC[C@@H]6c6ccccc6)cc5)CC3)C2)C4)C(=O)N1 (stereo not given in full) | –
236 | 67 | O=C1CCC(N2C(=O)c3cc4c(cc3C2=O)CN(CCCCC2CCN(c3ccc([C@@H]5c6ccc(O)cc6CC[C@@H]5c5ccccc5)cc3)CC2)C4)C(=O)N1 (stereo not given in full) | –
129 | 101 | O=C1CCC(N2C(=O)c3cc4c(cc3C2=O)CN(CCCCCCC2CCN(c3ccc([C@@H]5c6ccc(O)cc6CC[C@@H]5c5ccccc5)cc3)CC2)C4)C(=O)N1 (stereo not given in full) | –
6 | 84 | O=C1CCC(N2C(=O)c3cc4c(cc3C2=O)CN(CC2CN(C(=O)C3CCN(c5ccc([C@@H]6c7ccc(O)cc7CC[C@@H]6c6ccccc6)cc5)CC3)C2)C4)C(=O)N1 (stereo not given in full) | –
21 | 59 | O=C1CCC(N2C(=O)c3cc4c(cc3C2=O)CN(CC2CN(CC3CCN(c5ccc([C@@H]6c7ccc(O)cc7CC[C@@H]6c6ccccc6)cc5)CC3)C2)C4)C(=O)N1 (stereo not given in full) | –
171 | 79 | O=C1CCC(N2C(=O)c3cc4c(cc3C2=O)CN(CCCC2CCN(c3ccc([C@@H]5c6ccc(O)cc6CC[C@@H]5c5ccccc5)cc3)CC2)C4)C(=O)N1 (stereo not given in full) | –
1000 | 50 | O=C1CCC(N2C(=O)c3cc4c(cc3C2=O)CN(CCC2CCN(c3ccc([C@@H]5c6ccc(O)cc6CC[C@@H]5c5ccccc5)cc3)CC2)C4)C(=O)N1 (stereo not given in full) | –
